One experiment concerns the target CXCR4 (Homo sapiens, UniProt P61073). The experiment in a line: Inhibition of SDF-1α-induced intracellular calcium release (Fura-2/AM, HeLa and U87 cells expressing CXCR4). The class given is cell-based. To be noted: for Concentration, required for complete inhibition of [Ca^2+ I] release: Table 3, peptides from second transmembrane domain of CXCR4; for Concentration, required for complete inhibition of [Ca ^2+ i] release: Table 1. The method, then: The effect of the peptides on CXCR4-mediated calcium fluxes in HeLa cells that naturally express the CXCR4 receptor and U87 cells stably expressing the CXCR4 receptor was tested as follows. Cells grown on Nunc cover glass chamber slides were incubated with 1 micromolar Fura-2/AM for 20 min in a CO2-incubator, rinsed with PBS and mounted on the stage of a Zeiss Axiovert inverted microscope. [Ca^2+]i measurements were performed using an Attofluor digital imaging system (Atto Instruments, Rockville, MD). Fluorescence of Fura was excited at alternating wavelength of 340 and 380 nm. Fluorescence was monitored by an intensified CCD camera using a 505 cut-off filter. Calibrations of [Ca^2+]i signals were performed using Ca^2+ standards containing 1 micromolar Fura. CXCR4 antagonists were tested on HeLa cells and U87 cells. Stromal cell-derived factor-1α (SDF-1α) was used as a specific CXCR4 agonist.
CCR5 antagonists, which were used in selectivity studies as described below, were tested on HEK (human kidney […]) cells stably expressing the CCR5 receptor and RANTES was used as an agonist. The antagonist activity of the peptides was evaluated by measuring the inhibition of agonist-evoked intracellular Ca^2+i release. These measurements were carried out in Fura-2/AM-treated cells, utilizing an Attofluor digital imaging system as described above. The agonist was SDF-1α.
Further optimization and structure-activity studies allowed to obtain antagonists derived from all but the third and fifth transmembrane domains (Table 2). Table 1. Activity of synthetic peptides corresponding to predicted transmembrane domains of CXCR4 in inhibition of SDF-1α-induced intracellular calcium release.
Table 2. Biological activity of CXCR4 antagonists derived from different transmembrane domains. Anti signaling activity was determined in inhibition of SDF-1α-induced intracellular calcium release. Anti-HIV-1 activity was assessed in cytoprotection assay utilizing CEM-SS cells infected with HIV-1RF.

The target in a further experiment is T1, CCKAR (Rattus norvegicus, UniProt P30551).
T1 construct: expressed in transfected cells; host or cells: CHO cells
T1 sequence (P30551 1-444): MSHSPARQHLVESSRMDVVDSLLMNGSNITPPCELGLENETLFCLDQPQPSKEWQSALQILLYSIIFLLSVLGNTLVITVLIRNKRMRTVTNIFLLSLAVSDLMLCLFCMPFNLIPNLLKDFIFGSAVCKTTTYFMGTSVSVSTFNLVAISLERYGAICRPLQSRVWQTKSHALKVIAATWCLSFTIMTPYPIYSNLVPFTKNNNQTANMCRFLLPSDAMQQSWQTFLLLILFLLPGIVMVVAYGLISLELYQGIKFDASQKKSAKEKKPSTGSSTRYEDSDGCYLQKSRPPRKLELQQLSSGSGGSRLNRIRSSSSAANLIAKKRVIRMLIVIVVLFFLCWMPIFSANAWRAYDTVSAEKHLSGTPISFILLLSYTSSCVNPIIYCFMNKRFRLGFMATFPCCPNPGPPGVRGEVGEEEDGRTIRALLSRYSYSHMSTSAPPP
The experiment in a line: Inhibition of binding of fluorescent agonist RG-CCK-8, quantitative confocal laser scanning microscopy.

A further experiment deals with HIV-1RF. The experiment in a line: Anti-HIV-1 cytoprotection assay, CEM-SS cells infected with HIV-1 strain RF. The class given is cell-based.
[1] abbreviates: cytoprotection assay, CEM-SS cells infected with HIV-1RF, read-out: EC50 in anti-HIV-1 assay.
The mark [2] stands for this setting: SDF-1α-induced intracellular calcium release.

Where two headings read alike, the source gives them in different places. Where a SMILES comes first, the peptide text is derived from it. Where no end group is shown, it is not given here. K(Rhod) = not defined here

Chain of CXCR4 (P61073 whole entry, the tested form may be a part): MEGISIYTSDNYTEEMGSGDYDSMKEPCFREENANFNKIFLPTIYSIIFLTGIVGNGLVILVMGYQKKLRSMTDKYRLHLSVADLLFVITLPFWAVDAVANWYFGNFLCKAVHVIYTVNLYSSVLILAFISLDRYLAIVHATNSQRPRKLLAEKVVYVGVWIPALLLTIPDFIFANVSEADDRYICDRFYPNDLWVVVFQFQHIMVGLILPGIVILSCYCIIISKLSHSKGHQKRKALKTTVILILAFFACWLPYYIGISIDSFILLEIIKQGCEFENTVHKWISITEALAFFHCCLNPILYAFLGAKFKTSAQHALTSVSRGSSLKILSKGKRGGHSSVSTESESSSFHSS

With `CC[C@H](C)[C@H](NC(=O)[C@@H](NC(=O)[C@H](Cc1ccccc1)NC(=O)[C@H](CC(C)C)NC(=O)[C@H](CC(C)C)NC(C)=O)C(C)C)C(=O)N[C@H](C(=O)N[C@@H](CC(C)C)C(=O)N1CCC[C@H]1C(=O)N[C@@H](Cc1ccccc1)C(=O)N[C@@H](Cc1c[nH]c2ccccc12)C(=O)N[C@@H](C)C(=O)N[C@H](C(=O)N[C@@H](CC(=O)O)C(=O)N[C@@H](C)C(=O)N[C@H](C(=O)N[C@@H](C)C(=O)N[C@@H](CC(N)=O)C(=O)N[C@@H](CC(=O)O)C(=O)N[C@@H](CC(=O)O)C(=O)O)C(C)C)C(C)C)[C@@H](C)O` [AcF-2-5], the “Concentration, required for complete inhibition of [Ca^2+ I] release” value at CXCR4 was 10 µM. Consider `CC[C@H](C)[C@H](NC(=O)[C@H](CCC(N)=O)NC(=O)[C@H](CC(C)C)NC(=O)[C@H](C)NC(=O)[C@H](CO)NC(=O)[C@H](CCC(N)=O)NC(=O)[C@H](Cc1c[nH]c2ccccc12)NC(=O)[C@H](CCC(=O)O)NC(=O)[C@H](CC(=O)O)NC(=O)[C@@H](N)CC(=O)O)C(=O)N[C@@H](CC(C)C)C(=O)N[C@@H](CC(C)C)C(=O)N[C@@H](Cc1ccc(O)cc1)C(=O)N[C@@H](CO)C(=O)N[C@H](C(=O)N[C@H](C(=O)N[C@@H](Cc1ccccc1)C(=O)N[C@@H](CC(C)C)C(=O)N[C@@H](CC(C)C)C(=O)N[C@@H](CO)C(=O)N[C@H](C(=O)NCC(=O)N[C@@H](CC(N)=O)C(=O)N[C@H](C(=O)N[C@@H](CC(C)C)C(=O)N[C@H](C(=O)N[C@H](C(=O)N[C@H](C(=O)N[C@H](C(=O)O)C(C)C)[C@@H](C)O)[C@@H](C)CC)C(C)C)[C@@H](C)O)C(C)C)[C@@H](C)CC)[C@@H](C)CC` [CCKAR-1-6] (H-DDEWQSALQILLYSIIFLLSVGNTLVITV-OH), for which the IC50 at CCKAR (fluorescent agonist rhodamine green CCK-8, read-out: IC50 in inhibiton of RG-CCK-8 binding) is 20 µM. Regarding `CC[C@H](C)[C@H](NC(=O)CNC(=O)[C@@H]1CCCN1C(=O)[C@H](CC(C)C)NC(=O)[C@H](CC(C)C)NC(=O)[C@H](Cc1ccccc1)NC(=O)[C@H](CC(C)C)NC(=O)[C@@H](NC(=O)[C@H](CC(C)C)NC(=O)[C@H](CC(C)C)NC(=O)[C@H](CC(C)C)NC(=O)[C@H](Cc1ccccc1)NC(=O)[C@@H](NC(=O)[C@H](CCC(N)=O)NC(=O)[C@H](CC(=O)O)NC(=O)[C@@H](N)CC(=O)O)[C@@H](C)O)[C@@H](C)CC)C(=O)N[C@H](C(=O)N[C@@H](CCSC)C(=O)N[C@H](C(=O)N[C@H](C(=O)N[C@@H](C)C(=O)N[C@@H](Cc1ccc(O)cc1)C(=O)NCC(=O)N[C@@H](CC(C)C)C(=O)O)C(C)C)C(C)C)C(C)C` [CCKAR-5-3] (H-DDQTFLLLILFLLPGIVMVVAYGL-OH), the IC50 on CCKAR was > 50 µM. Still for that read-out and setting: to `CC[C@H](C)[C@H](N)C(=O)N[C@H](C(=O)N[C@H](C(=O)N[C@@H](CC(C)C)C(=O)N[C@@H](Cc1ccccc1)C(=O)N[C@@H](Cc1ccccc1)C(=O)N[C@@H](CC(C)C)C(=O)N[C@@H](CS)C(=O)N[C@@H](Cc1c[nH]c2ccccc12)C(=O)N[C@@H](CCSC)C(=O)N1CCC[C@H]1C(=O)N[C@H](C(=O)N[C@@H](Cc1ccccc1)C(=O)N[C@@H](CO)C(=O)N[C@@H](C)C(=O)N[C@@H](CC(N)=O)C(=O)N[C@@H](C)C(=O)N[C@@H](Cc1c[nH]c2ccccc12)C(=O)N[C@@H](CCCNC(=N)N)C(=O)N[C@@H](C)C(=O)N[C@@H](Cc1ccc(O)cc1)C(=O)N[C@@H](CC(=O)O)C(=O)N[C@H](C(=O)N[C@H](C(=O)N[C@@H](CC(=O)O)C(=O)N[C@@H](CC(=O)O)C(=O)O)C(C)C)[C@@H](C)O)[C@@H](C)CC)C(C)C)C(C)C` [CCKAR-6-4] (H-IVVLFFLCWMPIFSANAWRAYDTVDD-OH) belongs > 50 µM. `CC[C@H](C)[C@H](NC(=O)[C@@H](NC(=O)[C@H](Cc1ccccc1)NC(=O)[C@H](CC(C)C)NC(=O)[C@@H](N)CC(C)C)C(C)C)C(=O)N[C@H](C(=O)N[C@@H](CC(C)C)C(=O)N1CCC[C@H]1C(=O)N[C@@H](Cc1ccccc1)C(=O)N[C@@H](Cc1c[nH]c2ccccc12)C(=O)N[C@@H](C)C(=O)N[C@H](C(=O)N[C@@H](CC(=O)O)C(=O)N[C@@H](C)C(=O)N[C@H](C(=O)N[C@@H](C)C(=O)N[C@@H](CC(N)=O)C(=O)N[C@@H](Cc1c[nH]c2ccccc12)C(=O)N[C@@H](Cc1ccc(O)cc1)C(=O)N[C@@H](Cc1ccccc1)C(=O)NCC(=O)N[C@@H](CC(N)=O)C(=O)N[C@@H](CC(=O)O)C(=O)N[C@@H](CC(=O)O)C(=O)O)C(C)C)C(C)C)[C@@H](C)O` [Peptide F-2-2] (H-LLFVITLPFWAVDAVANWYFGNDD-OH): in the experiment on HIV-1RF (setting [1]), the EC50 amounted to 2.27 µM. Take `CC[C@H](C)[C@H](NC(=O)[C@H](Cc1ccccc1)NC(=O)[C@H](CC(=O)O)NC(=O)[C@@H]1CCCN1C(=O)[C@@H](NC(=O)[C@@H](NC(=O)[C@H](CC(C)C)NC(=O)[C@H](CC(C)C)NC(=O)[C@H](CC(C)C)NC(=O)[C@H](C)NC(=O)[C@@H]1CCCN1C(=O)[C@@H](NC(=O)[C@H](Cc1c[nH]c2ccccc12)NC(=O)[C@@H](NC(=O)CNC(=O)[C@@H](NC(=O)[C@H](Cc1ccc(O)cc1)NC(=O)[C@@H](N)C(C)C)C(C)C)C(C)C)[C@@H](C)CC)[C@@H](C)O)[C@@H](C)CC)C(=O)N[C@@H](Cc1ccccc1)C(=O)N[C@@H](C)C(=O)N[C@@H](CC(N)=O)C(=O)N[C@@H](CC(=O)O)C(=O)N[C@@H](CC(=O)O)C(=O)O` [Peptide F-4-2] (H-VYVGVWIPALLLTIPDFIFANDD-OH): in the experiment with HIV-1RF (setting [1]), the EC50 is 0.3 µM. The same measure, in the same setting: to `CC[C@H](C)[C@H](NC(=O)CNC(=O)[C@@H](NC(=O)[C@H](Cc1ccc(O)cc1)NC(=O)[C@H](Cc1ccc(O)cc1)NC(=O)[C@@H]1CCCN1C(=O)[C@H](CC(C)C)NC(=O)[C@H](Cc1c[nH]c2ccccc12)NC(=O)[C@H](CS)NC(=O)[C@H](C)NC(=O)[C@H](Cc1ccccc1)NC(=O)[C@H](Cc1ccccc1)NC(=O)[C@H](C)NC(=O)[C@H](CC(C)C)NC(=O)[C@@H](NC(=O)[C@H](CC(C)C)NC(=O)[C@@H](NC(=O)[C@@H](N)C(C)C)[C@@H](C)CC)[C@@H](C)CC)[C@@H](C)CC)C(=O)N[C@@H](CO)C(=O)N[C@H](C(=O)N[C@@H](CC(=O)O)C(=O)O)[C@@H](C)CC` [Peptide F-6-1] (H-VILILAFFACWLPYYIGISID-OH) belongs > 50 µM. `CC[C@H](C)[C@H](NC(=O)[C@@H]1CCCN1C(=O)[C@H](CC(N)=O)NC(=O)[C@H](CC(C)C)NC(=O)[C@H](CS)NC(=O)[C@H](CS)NC(=O)[C@H](Cc1c[nH]cn1)NC(=O)[C@H](Cc1ccccc1)NC(=O)[C@H](Cc1ccccc1)NC(=O)[C@H](C)NC(=O)[C@H](CC(C)C)NC(=O)[C@H](C)NC(=O)[C@H](CCC(=O)O)NC(=O)[C@H](CC(=O)O)NC(=O)[C@@H](N)CC(=O)O)C(=O)N[C@@H](CC(C)C)C(=O)N[C@@H](Cc1ccc(O)cc1)C(=O)N[C@@H](C)C(=O)N[C@@H](Cc1ccccc1)C(=O)N[C@@H](CC(C)C)C(N)=O` [Peptide F-7-3] (H-DDEALAFFHCCLNPILYAFL-NH2; N-terminus assumed) displayed a half-maximal effective concentration (EC50) in the experiment with HIV-1RF (1RF) of 3.27 µM. On CXCR4 (Table 2, SDF-1α-induced intracellular calcium release), the “Concentration, required for inhibition of signal transduction” value amounted to 25 µM. Turning to “ACLLFVITLPFWAVDAVANWYFG NDDK(Rhod) D-OH (ACLLFVITLPFWAVDAVANWYFGNDD-{K(Rhod)-Asp-OH}; reading uncertain; also: printed as ACLLFVITLPFWAVDAVANWYFG NDDK(Rhod) D-OH) [Rhod - F-2]”, in the experiment with CXCR4, the “Concentration, required for complete inhibition of [Ca^2+ I] release” value stood at 8 µM. As to “ALAFFHCCLNPILYAFLGAK-NH2 (cysteine pairing not given here) [Peptide F-7-1]”, the “Concentration, required for complete inhibition of [Ca ^2+ i] release” value in the experiment with CXCR4 (setting [2]) was > 100 µM. As to “HIMVGLILPGIVILSCYCIII-NH2 (cysteine pairing not given here) [Peptide F-5-1]”, the “Concentration, required for complete inhibition of [Ca ^2+ i] release” value with CXCR4 (setting [2]) is >50 µM.

The values above are taken from patent EP1056778B1, “G PROTEIN-COUPLED RECEPTOR ANTAGONISTS” (priority 1998, dated 1999).
